Results published in patent publication EP0603240B1, “SAFENING HERBICIDAL PYRAZOLYLSULFONYLUREAS” (priority 1991, dated 1993).

Tests used:
corn [1] = experiment: Example 25, greenhouse post-emergence test: Antidote Nos. 1 and 2 against Herbicide Nos. 1-3; type: in vivo, Corn (Pioneer 3424 variety); settings: for % Inhibition Corn: no herbicide; for inhibition at 0.25 g/ha / inhibition at 0.74 g/ha / inhibition at 2.5 g/ha / inhibition at 0.07 g/ha: Zea mays
Description: Additional tests were conducted in the greenhouse in order to evaluate the antidotal efficacy of Antidote Nos. 1 (dichlormid) and 2 (naphthalic anhydride) in protecting corn from the herbicidal activity of Herbicide Nos. 1-3 (i.e., NC-319, NC-319 EX and NC-311, respectively). The chemicals were tested in both preemergence and post-emergence modes of application. The herbicides were prepared and applied as wettable powders; dichlormid was applied as an emulsifiable concentrate, while the naphthalic anhydride was applied as a coating on the corn seed prior to planting.
Corn seeds (Pioneer 3424 variety) were planted in alluvial soil containing compost and fertilizer in pots 12 cm. in diameter. Test chemicals were applied with a spray gun at the spray volume rate of 11.2 l/ha at the time of seeding in the preemergence tests and seven (7) days after seeding in the post-emergence tests, when the check (control) plants were at the 16-20 cm., 3.0-3.2 leaf stage, and naphthalic anhydride coated seed grown plants were at the 14-16 cm., 2.8-3.0 leaf stage.
Test data from the preemergence tests are shown in Table 25A and from the post-emergence tests in Table 25B. In the tables, the concentration of chemicals is shown in terms of active ingredient in grams per hectare (G/ha); concentrations of the naphthalic anhydride were not measured per se, but were present as in conventional, normally-coated applications. Corn injury is shown in terms of percent inhibition of growth.

[2] = tested on: barnyardgrass (Echinochloa crusgalli); experiment: Example 3, Procedure I: antidotes against Herbicide No. 1; type: in vivo
Description: Containers were filled and compacted with a fumigated silt loam top soil to a depth of about 1.3 cm from the top of the container. A first container was designated as an untreated control, a second container was designated as a herbicide control, and a third container was designated as a herbicide + antidote test container. Each of the containers was seeded with a crop species. A measured amount of herbicide dispersed or dissolved in acetone was applied to a measured quantity of soil. To this same quantity of soil treated with herbicide, there was added a measured amount of antidote dispersed or dissolved in acetone. The quantity of soil treated with the herbicide and antidote was thoroughly mixed to incorporate the herbicide and antidote in the soil uniformly. The seed bed in the third container of soil was covered with the soil treated with the herbicide and antidote and the container was leveled. For each test series, the seed beds of the first and second containers were likewise covered by soil layers. the cover layer of the first container was not treated with herbicide or antidote.
The containers were then placed on a bench in a greenhouse and sub-irrigated as required for the duration of the test. […] Plant response is measured in terms of percent injury. Antidote efficacy is indicated as the difference in plant injury by the herbicide(s) without the antidote and with the antidote.
In the series of greenhouse tests described below, for routine screening purposes the herbicide/antidote compositions were tested in crop/weed combinations involving corn as the crop and either or both of the weeds barnyardgrass (Echinochloa crusgalli), a monocotyledonous weed, and velvetleaf (Abutilon theophrasti), a dicotyledonous weed. In the tables below, these weeds are indicated by the symbols "BYG" and "VL", respectively.
This example details the results of tests with Antidote Nos. 12, 15 and 16 to safen Herbicide No. 1 over application rates ranging from 4.48 kg/ha down to 0.56 kg/ha, in corn in the presence of barnyardgrass. Procedure I described above was used in these tests.

[3] = tested on: velvetleaf (Abutilon theophrasti); experiment: Example 14, Procedure II: Herbicide No. 1 + metolachlor (No. 12) with Antidote No. 17; type: in vivo
corn [4] = experiment: Example 26, field trials, pre-plant incorporation (PPI): corn growth reduction; type: in vivo; settings: for corn growth reduction (GR) / maximum injury level (GR): PPI
Description: (§1) In order to better understand and to confirm the results of greenhouse tests with herbicidal compositions comprising representative compounds according to Formula I and an antidote with and without a co-herbicide, a large number of field trials were conducted. This example provides a summary of those field trials.
(§2) The primary purpose of the field trials summarized herein was to ascertain the amount of corn injury caused by a compound according to Formula I. viz. Herbicide No. 1, with and without a co-herbicide of the α-chloroacetanilide class, viz., Herbicide Nos. 6 and 7, and the extent that any corn injury could be safened by a dichloroacetamide antidotal compound, viz., Antidote No. 15.
(§3) Corn injury is generally expressed, in broad terms, in stand reduction, growth reduction, malformed plants and other more specific effects. For purposes of the summary here, the results of a plurality of field trials are expressed in terms of growth reduction (GR), i.e., a significant reduction in plant height of the corn stand. A common criteria for commercially-acceptable corn injury is an amount equal to or less than 10% malformed plants or stand reduction and for present reporting purposes, no greater than about 15% growth reduction. The corn injury/safening described for these field trials refers to commercially-unacceptable to commercially-acceptable performance.
(§4) In the field trials from a wide distribution of trial locations, soil types (all having in excess of 2% organic matter), climatic effects, etc., the test chemicals were applied as tank mixes in various modes of application, i.e., pre-plant incorporation (PPI) and preemergence surface application (PRE). Test plots were small plots with three replications in a randomized complete block design. Observations were made and recorded in a period of from 31-50 days after treatment.

corn [5] = experiment: Example 26, field trials, preemergence surface application (PRE): corn growth reduction; type: in vivo
Description: as §1, §2, §3, §4

## O=C1OC(=O)c2cccc3cccc1c23 [compound 2]
Corn [1]; Antidote alone as seed treatment (concentration not measured)
  % Inhibition Corn: 14.5%
Corn [1]; Antidote as seed treatment (concentration not measured) with Herbicide No. 1 at 0.25 G/ha
  inhibition at 0.25 g/ha: 14.1%
Corn [1]; Antidote as seed treatment (concentration not measured) with Herbicide No. 1 at 0.74 G/ha
  inhibition at 0.74 g/ha: 27.3%
Corn [1]; Antidote as seed treatment (concentration not measured) with Herbicide No. 1 at 2.5 G/ha
  inhibition at 2.5 g/ha: 16.7%
Corn [1]; Antidote as seed treatment (concentration not measured) with Herbicide No. 2 at 0.25 G/ha
  inhibition at 0.25 g/ha: 8%
Corn [1]; Antidote as seed treatment (concentration not measured) with Herbicide No. 2 at 0.74 G/ha
  inhibition at 0.74 g/ha: 24.9%
Corn [1]; Antidote as seed treatment (concentration not measured) with Herbicide No. 2 at 2.5 G/ha
  inhibition at 2.5 g/ha: 19%
Corn [1]; Antidote as seed treatment (concentration not measured) with Herbicide No. 3 at 0.07 G/ha
  inhibition at 0.07 g/ha: 20.4%
Corn [1]; Antidote as seed treatment (concentration not measured) with Herbicide No. 3 at 0.25 G/ha
  inhibition at 0.25 g/ha: 33.7%
Corn [1]; Antidote as seed treatment (concentration not measured) with Herbicide No. 3 at 0.74 G/ha
  inhibition at 0.74 g/ha: 58.8%

## CC1(C)OC(c2ccco2)CN1C(=O)C(Cl)Cl (centres unmarked) [compound 15]
[2]; Herb. No. 1 0.56 kg/ha + antidote 0.56 kg/ha
  % Injury BYG: 50%
[2]; Herb. No. 1 0.56 kg/ha + antidote 2.24 kg/ha
  % Injury BYG: 35%
[2]; Herb. No. 1 0.56 kg/ha + antidote 8.96 kg/ha
  % Injury BYG: 10%
[2]; Herb. No. 1 1.12 kg/ha + antidote 0.56 kg/ha
  % Injury BYG: 75%
[2]; Herb. No. 1 1.12 kg/ha + antidote 2.24 kg/ha
  % Injury BYG: 60%
[2]; Herb. No. 1 1.12 kg/ha + antidote 8.96 kg/ha
  % Injury BYG: 60%
[2]; Herb. No. 1 2.24 kg/ha + antidote 0.56 kg/ha
  % Injury BYG: 60%
[2]; Herb. No. 1 2.24 kg/ha + antidote 2.24 kg/ha
  % Injury BYG: 70%
[2]; Herb. No. 1 2.24 kg/ha + antidote 8.96 kg/ha
  % Injury BYG: 50%
[2]; Herb. No. 1 4.48 kg/ha + antidote 0.56 kg/ha
  % Injury BYG: 75%
[2]; Herb. No. 1 4.48 kg/ha + antidote 2.24 kg/ha
  % Injury BYG: 70%
[2]; Herb. No. 1 4.48 kg/ha + antidote 8.96 kg/ha
  % Injury BYG: 80%
[2]; antidote 8.96 kg/ha alone, no herbicide
  % Injury BYG: 0%

## CC1COc2ccccc2N1C(=O)C(Cl)Cl (centres unmarked) [compound 17]
[3]; Herbicide No.1 0.14 + No.12 4.48 kg/ha + Antidote No.17 0.15 kg/ha
  % Injury VL: 90%
[3]; Herbicide No.1 0.56 + No.12 4.48 kg/ha + Antidote No.17 0.15 kg/ha
  % Injury VL: 95%
[3]; Herbicide No.1 2.24 + No.12 4.48 kg/ha + Antidote No.17 0.15 kg/ha
  % Injury VL: 100%

## COC(=O)c1c(Cl)nn(C)c1S(=O)(=O)NC(=O)Nc1nc(OC)cc(OC)n1 [Herbicide No. 1]
Corn [4]; Herbicide No. 1 0.14 kg/ha + Herbicide No. 6 (acetochlor), without an antidote
  corn injury level (GR): 14.9%
Corn [4]; Herbicide No. 1 0.28 kg/ha + Herbicide No. 6 (acetochlor), without an antidote
  corn injury level (GR): 24.9%
Corn [4]; Herbicide No. 1 0.7 kg/ha + Herbicide No. 6 (acetochlor), without an antidote
  corn injury level (GR): 12.5%
Corn [4]; Herbicide No. 1 0.07 kg/ha + Herbicide No. 7 (alachlor), without an antidote
  corn growth reduction (GR): 9.75%
Corn [4]; Herbicide No. 1 0.07 kg/ha + Herbicide No. 7, without an antidote
  maximum injury level (GR): 48%
Corn [4]; Herbicide No. 1 0.14 kg/ha + Herbicide No. 7 (alachlor), without an antidote
  corn growth reduction (GR): 13.25%
Corn [4]; Herbicide No. 1 0.14 kg/ha + Herbicide No. 7, without an antidote
  maximum injury level (GR): 48%
[2]; Herb. No. 1 0.56 kg/ha, no antidote
  % Injury BYG: 50%
[2]; Herb. No. 1 1.12 kg/ha, no antidote
  % Injury BYG: 70%
[2]; Herb. No. 1 2.24 kg/ha, no antidote
  % Injury BYG: 70%
[2]; Herb. No. 1 4.48 kg/ha, no antidote
  % Injury BYG: 75%
Corn [5]; Herbicide No. 1 0.07 kg/ha + acetochlor, no antidote
  corn growth reduction (GR): 9.8%
Corn [5]; Herbicide No. 1 0.14 kg/ha + acetochlor, no antidote
  corn growth reduction (GR): 13.4%
Corn [5]; Herbicide No. 1 0.28 kg/ha + acetochlor, no antidote
  corn growth reduction (GR): 20.3%

## C=CCN(CC=C)C(=O)C(Cl)Cl [compound 1]
Corn [1]; Antidote alone (rate printed as -)
  % Inhibition Corn: 1.4%
Corn [1]; Antidote at 7.41 G/ha with Herbicide No. 1 at 0.25 G/ha
  inhibition at 0.25 g/ha: 16.1%
Corn [1]; Antidote at 7.41 G/ha with Herbicide No. 1 at 0.74 G/ha
  inhibition at 0.74 g/ha: 16.3%
Corn [1]; Antidote at 7.41 G/ha with Herbicide No. 1 at 2.5 G/ha
  inhibition at 2.5 g/ha: 22.4%
Corn [1]; Antidote at 7.41 G/ha with Herbicide No. 2 at 0.25 G/ha
  inhibition at 0.25 g/ha: 17.6%
Corn [1]; Antidote at 7.41 G/ha with Herbicide No. 2 at 0.74 G/ha
  inhibition at 0.74 g/ha: 15.9%
Corn [1]; Antidote at 7.41 G/ha with Herbicide No. 2 at 2.5 G/ha
  inhibition at 2.5 g/ha: 23.7%
Corn [1]; Antidote at 7.41 G/ha with Herbicide No. 3 at 0.07 G/ha
  inhibition at 0.07 g/ha: 39.8%
Corn [1]; Antidote at 7.41 G/ha with Herbicide No. 3 at 0.25 G/ha
  inhibition at 0.25 g/ha: 73.9%
Corn [1]; Antidote at 7.41 G/ha with Herbicide No. 3 at 0.74 G/ha
  inhibition at 0.74 g/ha: 73.1%

## CC1(C)OC(c2ccco2)CN1C(=O)C(Cl)Cl (centres unmarked) [Antidote No. 15, Oxazolidine, 3-(dichloroacetyl)-5-(2-furanyl)-2,2-dimethyl]
Corn [4]; Herbicide No. 1 0.14 kg/ha + Herbicide No. 6 + Antidote No. 15
  corn injury level (GR): 10.3%
Corn [4]; Herbicide No. 1 0.28 kg/ha + Herbicide No. 6 + Antidote No. 15
  corn injury level (GR): 12.5%
Corn [4]; Herbicide No. 1 0.7 kg/ha + Herbicide No. 6 + Antidote No. 15
  corn injury level (GR): 8.6%
Corn [4]; Herbicide No. 1 0.07 kg/ha + Herbicide No. 7 + Antidote No. 15 1:1
  maximum injury level (GR): 22%
Corn [4]; Herbicide No. 1 0.07 kg/ha + Herbicide No. 7 + Antidote No. 15 at 1:1 to Herbicide No. 1
  corn growth reduction (GR): 7.75%
Corn [4]; Herbicide No. 1 0.14 kg/ha + Herbicide No. 7 + Antidote No. 15 1:1
  maximum injury level (GR): 26%
Corn [4]; Herbicide No. 1 0.14 kg/ha + Herbicide No. 7 + Antidote No. 15 at 1:1 to Herbicide No. 1
  corn growth reduction (GR): 9.82%
Corn [4]; field trials (PPI and PRE), under most conditions
  safening of corn, assessment in words: effectively reduced corn GR injury
Corn [5]; Antidote No. 15 to Herbicide No. 1 ratio increased to 3:1
  crop injury, assessment in words: reduced crop injury even further
Corn [5]; Herbicide No. 1 0.07 kg/ha + acetochlor + Antidote No. 15
  corn growth reduction (GR): 8.7%
Corn [5]; Herbicide No. 1 0.14 kg/ha + acetochlor + Antidote No. 15
  corn growth reduction (GR): 8.2%
Corn [5]; Herbicide No. 1 0.28 kg/ha + acetochlor + Antidote No. 15
  corn growth reduction (GR): 14.5%
